Source: PubChem BioAssay AID2060500 (Molecular Pharmacology Branch, DTP, NCI, 2025)

Tested on: 596521-263-R-J1-PDC complex spheroids, viability % of control
Experiment: Anticancer human tumor 596521-263-R-J1-PDC patient-derived soft tissue sarcoma cell line growth inhibition [GQUAD]
Details: for IC50: curve of first compound; for viability, T/C: stronger effect = lower value
Procedure, shortened: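 Viability of tumor cells grown as complex spheroids with endothelial and stromal cells, exposed to drug combinations. Top concentration at or near clinical Cmax (else 10 microM), diluted in half-log increments.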

[1] = second compound 0.0316 µM, first compound 0.0316 µM
[2] = second compound 0.0316 µM, first compound 0.1 µM
[3] = second compound 0.0316 µM, first compound 0.316 µM
[4] = second compound 0.0316 µM, first compound 1 µM
[5] = second compound 0.0316 µM, first compound 3.16 µM
[6] = second compound 0.0316 µM, first compound 10 µM
[7] = second compound 0.1 µM, first compound 0.0316 µM
[8] = second compound 0.1 µM, first compound 0.1 µM
[9] = second compound 0.1 µM, first compound 0.316 µM
[10] = second compound 0.1 µM, first compound 1 µM
[11] = second compound 0.1 µM, first compound 3.16 µM
[12] = second compound 0.1 µM, first compound 10 µM
[13] = second compound 0.316 µM, first compound 0.0316 µM
[14] = second compound 0.316 µM, first compound 0.1 µM
[15] = second compound 0.316 µM, first compound 0.316 µM
[16] = second compound 0.316 µM, first compound 1 µM
[17] = second compound 0.316 µM, first compound 3.16 µM
[18] = second compound 0.316 µM, first compound 10 µM
[19] = second compound 1 µM, first compound 0.0316 µM
[20] = second compound 1 µM, first compound 0.1 µM
[21] = second compound 1 µM, first compound 0.316 µM
[22] = second compound 1 µM, first compound 1 µM
[23] = second compound 1 µM, first compound 3.16 µM
[24] = second compound 1 µM, first compound 10 µM
[25] = second compound 3.16 µM, first compound 0.0316 µM
[26] = second compound 3.16 µM, first compound 0.1 µM
[27] = second compound 3.16 µM, first compound 0.316 µM
[28] = second compound 3.16 µM, first compound 1 µM
[29] = second compound 3.16 µM, first compound 3.16 µM
[30] = second compound 3.16 µM, first compound 10 µM
[31] = second compound 10 µM, first compound 0.0316 µM
[32] = second compound 10 µM, first compound 0.1 µM
[33] = second compound 10 µM, first compound 0.316 µM
[34] = second compound 10 µM, first compound 1 µM
[35] = second compound 10 µM, first compound 3.16 µM
[36] = second compound 10 µM, first compound 10 µM
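Note: spheroids exposed to drugs for 7 days before viability reading.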
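Throughout, for viability, T/C: 100% = DMSO vehicle control viability.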

SMILES: C#Cc1c(F)ccc2cc(O)cc(-c3ncc4c(N5CC6CCC(C5)N6)nc(OCC56CCCN5CC(F)C6)nc4c3F)c12 (stereo unspecified) + CN(C)c1ccc(Nc2c3ccc(NC(=O)CCN4CCCC4)cc3nc3cc(NC(=O)CCN4CCCC4)ccc23)cc1
- IC50 (second compound 0.0316 µM): > 10 µM
- IC50 (second compound 0.1 µM): > 10 µM
- IC50 (second compound 0.316 µM): > 10 µM
- IC50 (second compound 1 µM): > 10 µM
- IC50 (second compound 3.16 µM): > 10 µM
- IC50 (second compound 10 µM): 4.15 µM
- viability, T/C [1]: 105%
- viability, T/C [2]: 95.1%
- viability, T/C [3]: 98.7%
- viability, T/C [4]: 115%
- viability, T/C [5]: 106%
- viability, T/C [6]: 99.2%
- viability, T/C [7]: 95.5%
- viability, T/C [8]: 96.1%
- viability, T/C [9]: 107%
- viability, T/C [10]: 108%
- viability, T/C [11]: 112%
- viability, T/C [12]: 92.3%
- viability, T/C [13]: 103%
- viability, T/C [14]: 106%
- viability, T/C [15]: 98.5%
- viability, T/C [16]: 97.3%
- viability, T/C [17]: 104%
- viability, T/C [18]: 83.1%
- viability, T/C [19]: 100%
- viability, T/C [20]: 111%
- viability, T/C [21]: 92.5%
- viability, T/C [22]: 88.6%
- viability, T/C [23]: 104%
- viability, T/C [24]: 96.8%
- viability, T/C [25]: 87.4%
- viability, T/C [26]: 87.2%
- viability, T/C [27]: 98.7%
- viability, T/C [28]: 90.5%
- viability, T/C [29]: 86.6%
- viability, T/C [30]: 78.3%
- viability, T/C [31]: 64.6%
- viability, T/C [32]: 66%
- viability, T/C [33]: 70.7%
- viability, T/C [34]: 64.2%
- viability, T/C [35]: 54.2%
- viability, T/C [36]: 36.8%

SMILES: CC(=O)O[C@H]1C(=O)[C@@]2(C)[C@H]([C@H](OC(=O)c3ccccc3)[C@]3(O)C[C@H](OC(=O)[C@H](O)[C@@H](NC(=O)c4ccccc4)c4ccccc4)C(C)=C1C3(C)C)[C@]1(OC(C)=O)CO[C@@H]1C[C@@H]2O + CN(C)c1ccc(Nc2c3ccc(NC(=O)CCN4CCCC4)cc3nc3cc(NC(=O)CCN4CCCC4)ccc23)cc1
- IC50 (second compound 0.0316 µM): < 0.0316 µM
- IC50 (second compound 0.1 µM): < 0.0316 µM
- IC50 (second compound 0.316 µM): < 0.0316 µM
- IC50 (second compound 1 µM): < 0.0316 µM
- IC50 (second compound 3.16 µM): < 0.0316 µM
- IC50 (second compound 10 µM): < 0.0316 µM
- viability, T/C [1]: 40.7%
- viability, T/C [2]: 27.7%
- viability, T/C [3]: 25.7%
- viability, T/C [4]: 22.9%
- viability, T/C [5]: 26.8%
- viability, T/C [6]: 31.9%
- viability, T/C [7]: 37.5%
- viability, T/C [8]: 25.6%
- viability, T/C [9]: 24.3%
- viability, T/C [10]: 28%
- viability, T/C [11]: 23.1%
- viability, T/C [12]: 26.6%
- viability, T/C [13]: 37.2%
- viability, T/C [14]: 27.4%
- viability, T/C [15]: 25.2%
- viability, T/C [16]: 29.2%
- viability, T/C [17]: 29.3%
- viability, T/C [18]: 25.3%
- viability, T/C [19]: 38.3%
- viability, T/C [20]: 29%
- viability, T/C [21]: 26.5%
- viability, T/C [22]: 25.2%
- viability, T/C [23]: 28.3%
- viability, T/C [24]: 27.5%
- viability, T/C [25]: 35.6%
- viability, T/C [26]: 32.1%
- viability, T/C [27]: 26.9%
- viability, T/C [28]: 27.1%
- viability, T/C [29]: 27.3%
- viability, T/C [30]: 28.2%
- viability, T/C [31]: 34.3%
- viability, T/C [32]: 21.7%
- viability, T/C [33]: 21.4%
- viability, T/C [34]: 21.5%
- viability, T/C [35]: 21.6%
- viability, T/C [36]: 24.9%

SMILES: CCCS(=O)(=O)Nc1ccc(F)c(C(=O)c2c[nH]c3ncc(-c4ccc(Cl)cc4)cc23)c1F + CN(C)c1ccc(Nc2c3ccc(NC(=O)CCN4CCCC4)cc3nc3cc(NC(=O)CCN4CCCC4)ccc23)cc1
- IC50 (second compound 0.0316 µM): 5.18 µM
- IC50 (second compound 0.1 µM): 5.51 µM
- IC50 (second compound 0.316 µM): 5.6 µM
- IC50 (second compound 1 µM): 6.65 µM
- IC50 (second compound 3.16 µM): 5.01 µM
- IC50 (second compound 10 µM): 1.82 µM
- viability, T/C [1]: 94.7%
- viability, T/C [2]: 83.9%
- viability, T/C [3]: 95.3%
- viability, T/C [4]: 82.1%
- viability, T/C [5]: 65.8%
- viability, T/C [6]: 29.4%
- viability, T/C [7]: 101%
- viability, T/C [8]: 88.9%
- viability, T/C [9]: 104%
- viability, T/C [10]: 83%
- viability, T/C [11]: 69.8%
- viability, T/C [12]: 29.9%
- viability, T/C [13]: 94.4%
- viability, T/C [14]: 93.8%
- viability, T/C [15]: 89.4%
- viability, T/C [16]: 80%
- viability, T/C [17]: 65.9%
- viability, T/C [18]: 34.4%
- viability, T/C [19]: 98.5%
- viability, T/C [20]: 97.7%
- viability, T/C [21]: 85.8%
- viability, T/C [22]: 84.1%
- viability, T/C [23]: 71%
- viability, T/C [24]: 39.1%
- viability, T/C [25]: 93.2%
- viability, T/C [26]: 91.7%
- viability, T/C [27]: 94%
- viability, T/C [28]: 84.3%
- viability, T/C [29]: 56.9%
- viability, T/C [30]: 39.8%
- viability, T/C [31]: 62.9%
- viability, T/C [32]: 60.5%
- viability, T/C [33]: 56.9%
- viability, T/C [34]: 57.3%
- viability, T/C [35]: 44.5%
- viability, T/C [36]: 30.1%
